Tests used:
Assay in all cases: relative viability (nuclei count vs DMSO), 5 days (fraction); higher = more cells survive
Venetoclax + Alpelisib = compound: CC1(C)CCC(CN2CCN(c3ccc(C(=O)NS(=O)(=O)c4ccc(NCC5CCOCC5)c([N+](=O)[O-])c4)c(Oc4cnc5[nH]ccc5c4)c3)CC2)=C(c2ccc(Cl)cc2)C1 [Venetoclax] + Cc1nc(NC(=O)N2CCC[C@H]2C(N)=O)sc1-c1ccnc(C(C)(C)C(F)(F)F)c1 [Alpelisib] (partner 2 µM)
Summary of the method: (§1)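 Dosing by pin tool came one day after lung cancer cell lines were seeded in 1536-well plates, using either one drug or a fixed anchor-drug dose plus five library-drug doses (not always all listed) in √10 steps. After 5 days, nuclei were counted on 4× images. Relative viability is treated-well nuclei count divided by vehicle-well nuclei count, and values are medians of duplicate plates.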

Venetoclax + Dasatinib = compound: CC1(C)CCC(CN2CCN(c3ccc(C(=O)NS(=O)(=O)c4ccc(NCC5CCOCC5)c([N+](=O)[O-])c4)c(Oc4cnc5[nH]ccc5c4)c3)CC2)=C(c2ccc(Cl)cc2)C1 [Venetoclax] + Cc1nc(Nc2ncc(C(=O)Nc3c(C)cccc3Cl)s2)cc(N2CCN(CCO)CC2)n1 [Dasatinib] (partner 0.075 µM)
Summary of the method: as §1

Selumetinib + Foretinib = compound: Cn1cnc2c(F)c(Nc3ccc(Br)cc3Cl)c(C(=O)NOCCO)cc21 [Selumetinib] + COc1cc2c(Oc3ccc(NC(=O)C4(C(=O)Nc5ccc(F)cc5)CC4)cc3F)ccnc2cc1OCCCN1CCOCC1 [Foretinib] (partner 0.25 µM)
Summary of the method: as §1

Selumetinib + Phenformin = compound: Cn1cnc2c(F)c(Nc3ccc(Br)cc3Cl)c(C(=O)NOCCO)cc21 [Selumetinib] + N=C(N)NC(=N)NCCc1ccccc1 [Phenformin] (partner 250 µM)
Summary of the method: as §1

| Cell Line | relative viability (Venetoclax + Alpelisib; first compound 0.01 µM) | relative viability (Venetoclax + Alpelisib; first compound 0.03162 µM) | relative viability (Venetoclax + Alpelisib; first compound 0.1 µM) | relative viability (Venetoclax + Alpelisib; first compound 0.3162 µM) | relative viability (Venetoclax + Alpelisib; first compound 1 µM) | relative viability (Venetoclax + Dasatinib; first compound 0.01 µM) | relative viability (Venetoclax + Dasatinib; first compound 0.03162 µM) | relative viability (Venetoclax + Dasatinib; first compound 0.1 µM) | relative viability (Venetoclax + Dasatinib; first compound 0.3162 µM) | relative viability (Venetoclax + Dasatinib; first compound 1 µM) | relative viability (Selumetinib + Foretinib; first compound 0.02 µM) | relative viability (Selumetinib + Foretinib; first compound 0.06325 µM) | relative viability (Selumetinib + Foretinib; first compound 0.2 µM) | relative viability (Selumetinib + Foretinib; first compound 0.6325 µM) | relative viability (Selumetinib + Phenformin; first compound 0.02 µM) | relative viability (Selumetinib + Phenformin; first compound 0.06325 µM) | relative viability (Selumetinib + Phenformin; first compound 0.2 µM) | relative viability (Selumetinib + Phenformin; first compound 0.6325 µM) |
| --- | --- | --- | --- | --- | --- | --- | --- | --- | --- | --- | --- | --- | --- | --- | --- | --- | --- | --- |
| NCI-H2347 | 1.04 | 1.04 | 1.06 | 1 | 1.04 | 0.328 | 0.318 | 0.322 | 0.309 | 0.268 | 0.93 | 0.704 | 0.451 | 0.421 | 0.401 | 0.256 | 0.187 | 0.283 |
| NCI-H2405 | 0.833 | 0.751 |  | 0.82 | 0.705 | 0.179 | 0.199 | 0.186 | 0.197 | 0.197 | 1.05 | 0.983 | 0.909 | 0.545 | 0.344 | 0.319 | 0.296 | 0.164 |
| NCI-H3122 | 0.874 | 0.751 | 0.757 | 0.731 | 0.884 | 0.811 | 0.757 | 0.885 | 0.786 | 0.817 | 0.866 | 0.774 | 0.719 | 0.583 | 0.386 | 0.305 | 0.287 | 0.286 |
| PC-3 [JPC-3] | 0.917 | 1.03 | 1.01 | 0.967 | 1.01 | 0.863 | 0.991 | 0.995 | 1.01 | 0.942 | 0.944 | 0.92 | 0.922 | 0.713 | 0.446 | 0.489 | 0.473 | 0.414 |
| PC-14 | 0.882 | 0.931 | 1.05 | 0.952 | 0.776 | 0.337 | 0.272 | 0.284 | 0.259 | 0.253 | 0.97 | 0.886 | 0.819 | 0.881 | 0.516 | 0.507 | 0.529 | 0.447 |
| RERF-LC-KJ | 0.769 | 0.871 | 0.736 | 0.91 | 0.779 | 0.62 | 0.84 | 0.784 | 0.779 | 0.675 | 0.87 | 0.901 | 0.853 | 0.819 | 0.368 | 0.388 | 0.422 | 0.395 |
| SK-LU-1 | 0.899 | 1.15 | 0.855 | 0.981 | 0.854 | 0.251 | 0.168 | 0.192 | 0.191 | 0.181 | 0.762 | 0.778 | 0.711 | 0.449 | 0.536 | 0.484 | 0.505 | 0.239 |
| SK-MES-1 | 0.857 | 0.898 | 0.887 | 0.788 | 0.831 | 0.4 | 0.383 | 0.329 | 0.408 | 0.376 | 0.831 | 0.818 | 0.534 | 0.491 | 0.667 | 0.599 | 0.637 | 0.462 |
| SW 1573 | 0.74 | 0.754 | 0.632 | 0.758 | 0.681 | 0.431 | 0.445 | 0.517 | 0.599 | 0.452 | 0.909 | 0.776 | 0.638 | 0.598 | 0.291 | 0.275 | 0.276 | 0.212 |

Source: the supplement of paper PMC10307832
